Reference: patent publication US20100062073A1, “PHARMACEUTICAL COMPOSITIONS COMPRISING NANOPARTICLES COMPRISING ENTERIC POLYMERS CASEIN” (priority 2006, published 2010)

Assay: Solubility of drug in PBS
Type: physicochemical
Conditions: phosphate buffered saline (PBS), pH 6.5, aqueous buffer
Protocol: At a pH of greater than about 5, the enteric polymer is aqueous soluble. By “aqueous soluble” is meant that when the polymer is administered alone at a solids concentration of 0.2 mg/mL to a phosphate buffered saline (PBS) solution consisting of an aqueous solution of 20 mM sodium phosphate (Na2HPO4), 47 mM potassium phosphate (KH2PO4), 87 mM NaCl, and 0.2 mM KCl, adjusted to pH 6.5 with NaOH, the polymer has a solubility of greater than 0.1 mg/mL.
The Tm of Drug 1 is 10° C., and the Tg was determined by DSC analysis to be −16° C.

**Q.** With `CCc1cc(Oc2cccc(N(Cc3cccc(OC(F)(F)C(F)F)c3)C[C@@H](O)C(F)(F)F)c2)ccc1Cl` [Drug 1, (2R)-3-[[3-(4-chloro-3-ethylphenoxy)phenyl][[3-(1,1,2,2-tetrafluoroethoxy)phenyl]methyl]amino]-1,1,1-trifluoro-2-propanol] as the compound, how does the solubility read?
**A.** < 0.1 µg/mL
